Experimental data taken from US12642885B2, “Hemostatic and wound healing turmeric-polymer composite materials” (priority 2021, dated 2026).

Columns and labels:
blood clotting [1] = test: Effect of curcumin alone on blood clotting
Text: Turmeric powder is the dried powdered rhizomes of Curcuma longa of the ginger family. Turmeric powder comprises 60-70% carbohydrates, 6-13% water, 6-8% protein, 5-10% fat, 3-7% dietary minerals, 3-7% essential oils such as turmerone and germacrone, 2-7% dietary fiber, and 1-6% curcuminoids. (including curcumin). […] The turmeric powder may be passed through a 100 mesh (149 micron) sieve such that the resulting particles are smaller than 149 microns in diameter. Generally, turmeric powder is present in the suspension at a concentration between 0.1 g per mL and 2 g per ml. In one embodiment, the concentration is between 0.1 g per mL and 1 g per mL. In yet another embodiment, the concentration is between 0.1 g per mL and 0.5 g per mL.

most cancer cell lines = conditions: cited from earlier work
blood clotting [2] = conditions: Kim et al., BMB Rep. 2012; cited from earlier work

SMILES: COc1cc(/C=C/C(=O)CC(=O)/C=C/c2ccc(O)c(OC)c2)ccc1O [curcumin]
- promotion of blood clotting (blood clotting [1]): not found to promote blood clotting
- anti-cancer activity (most cancer cell lines): moderate
- IC50 (most cancer cell lines; most cancer cell lines, peer reviewed literature): 20 µM
- anticoagulant activity (blood clotting [2]): well-known anticoagulant
